# What was measured:
# Assay in all cases: In vitro antibacterial evaluation: minimum inhibitory concentration (MIC), broth dilution method
# Type in all cases: cell-based
# Enterococcus sp. = settings: 18 hours at 35° C.
# Procedure, shortened: (§1)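 Following NCCLS approved standard M7-A2, compounds are serially diluted from 64 to 0.06 μg/mL in Muller-Hinton II […] and inoculated at 5×10^5 CFU/mL; the MIC is the minimum concentration at which growth is inhibited.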
# Escherichia coli = settings: 18 hours at 35° C.
# Procedure, shortened: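 Inoculum: 5×10^5 CFU/mL. Range: 64-0.06 μg/mL. Medium: Muller-Hinton II […]; NCCLS M7-A2 broth dilution. Endpoint: lowest concentration inhibiting growth. Strains include methicillin-, penicillin- and/or vancomycin-resistant clinical isolates.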
# Staphylococcus sp. = test system: Staphylococcus sp.
# Procedure, shortened: as §1
# Streptococcus sp. = settings: 18 hours at 35° C.
# Procedure, shortened: as §1
# [1] = broth dilution, inoculum 5×10^5 CFU/mL
structure (smiles),measurement,setting,value
"CC(c1ccccc1)C1NC(=O)CNC(=O)C(CO)NC(=O)C(C(O)C2CNC(=N)N2C2OC(CO)C(O)C(O)C2O)NC(=O)C(C(O)C2CNC(=N)N2)NC(=O)C(Cc2ccc(OC3OC(CO)C(OC4OC5COC6(CC7CCC6(C)C7(C)C)OC5C(O)C4O)C(O)C3O)cc2)NC1=O (stereo not drawn) [Example 215, Cyclo[glycyl-β-methylphenylalanyl-O-[4-O-[4,6-O-(1,7,7-trimethylbicyclo[2.2.1]hept-2-ylidene)hexopyranosyl]hexopyranosyl]tyrosyl-3-(2-iminoimidazolidin-4-yl)seryl-3-(3-hexopyranosyl-2-iminoimidazolidin-4-yl)serylseryl]]",MIC Enterococcus avium (GC 4558),Enterococcus sp.; Enterococcus avium (GC 4558),0.5 mg/L
same,MIC Enterococcus faecalis (ATCC 29212),Enterococcus sp.; Enterococcus faecalis (ATCC 29212),0.5 mg/L
same,MIC Enterococcus faecalis (GC 2242),Enterococcus sp.; Enterococcus faecalis (GC 2242),1 mg/L
same,MIC Enterococcus faecalis (GC 2691),Enterococcus sp.; Enterococcus faecalis (GC 2691),1 mg/L
same,MIC Enterococcus faecalis (GC 3059),Enterococcus sp.; Enterococcus faecalis (GC 3059),1 mg/L
same,MIC Enterococcus faecalis (GC 4552),Enterococcus sp.; Enterococcus faecalis (GC 4552),1 mg/L
same,MIC Enterococcus faecalis (GC 4553),Enterococcus sp.; Enterococcus faecalis (GC 4553),0.5 mg/L
same,MIC Enterococcus faecalis (GC 4554),Enterococcus sp.; Enterococcus faecalis (GC 4554),1 mg/L
same,MIC Enterococcus faecalis (GC 6189),Enterococcus sp.; Enterococcus faecalis (GC 6189),1 mg/L
same,MIC Enterococcus faecium (GC 2243),Enterococcus sp.; Enterococcus faecium (GC 2243),0.5 mg/L
same,MIC Enterococcus faecium (GC 4556),Enterococcus sp.; Enterococcus faecium (GC 4556),1 mg/L
same,MIC Enterococcus faecium (GC 4557),Enterococcus sp.; Enterococcus faecium (GC 4557),0.5 mg/L
same,MIC Enterococcus avium (GC 4558),Enterococcus sp.; [1],0.5 mg/L
same,MIC Enterococcus faecalis (ATCC 29212),Enterococcus sp.; [1],0.5 mg/L
same,MIC Enterococcus faecalis (GC 2242),Enterococcus sp.; [1],1 mg/L
same,MIC Enterococcus faecalis (GC 2691),Enterococcus sp.; [1],1 mg/L
same,MIC Enterococcus faecalis (GC 3059),Enterococcus sp.; [1],1 mg/L
same,MIC Enterococcus faecalis (GC 4552),Enterococcus sp.; [1],1 mg/L
same,MIC Enterococcus faecalis (GC 4553),Enterococcus sp.; [1],0.5 mg/L
same,MIC Enterococcus faecalis (GC 4554),Enterococcus sp.; [1],1 mg/L
same,MIC Enterococcus faecalis (GC 6189),Enterococcus sp.; [1],1 mg/L
same,MIC Enterococcus faecium (GC 2243),Enterococcus sp.; [1],0.5 mg/L
same,MIC Enterococcus faecium (GC 4556),Enterococcus sp.; [1],1 mg/L
same,MIC Enterococcus faecium (GC 4557),Enterococcus sp.; [1],0.5 mg/L
same,MIC Escherichia coli (ATCC 25922),Escherichia coli; Escherichia coli (ATCC 25922),32 mg/L
same,MIC Escherichia coli (GC 4559),Escherichia coli; Escherichia coli (GC 4559),32 mg/L
same,MIC Escherichia coli (GC 4560),Escherichia coli; Escherichia coli (GC 4560),1 mg/L
same,MIC Staphylococcus aureus (ATCC 29213),Staphylococcus sp.; strain ATCC 29213,0.5 mg/L
same,MIC Staphylococcus aureus (GC 1131),Staphylococcus sp.; strain GC 1131,0.5 mg/L
same,MIC Staphylococcus aureus (GC 3051),Staphylococcus sp.; strain GC 3051,0.5 mg/L
same,MIC Staphylococcus aureus (GC 3053),Staphylococcus sp.; strain GC 3053,1 mg/L
same,MIC Staphylococcus aureus (GC 4541),Staphylococcus sp.; strain GC 4541,0.5 mg/L
same,MIC Staphylococcus aureus (GC 4542),Staphylococcus sp.; strain GC 4542,0.5 mg/L
same,MIC Staphylococcus aureus-SMITH (GC 4543),Staphylococcus sp.; strain GC 4543,<0.12 mg/L
same,MIC Staphylococcus aureus (GC 4544),Staphylococcus sp.; strain GC 4544,0.5 mg/L
same,MIC Staphylococcus aureus (GC 4545),Staphylococcus sp.; strain GC 4545,1 mg/L
same,MIC Staphylococcus haemolyticus (GC 4546),Staphylococcus sp.; strain GC 4546,0.5 mg/L
same,MIC Coagulase Negative Staphylococcus (GC 4547),Staphylococcus sp.; strain GC 4547,0.5 mg/L
same,MIC Coagulase Negative Staphylococcus (GC 4548),Staphylococcus sp.; strain GC 4548,0.5 mg/L
same,MIC Coagulase Negative Staphylococcus (GC 4549),Staphylococcus sp.; strain GC 4549,<0.12 mg/L
same,MIC Coagulase Negative Staphylococcus (GC 4551),Staphylococcus sp.; strain GC 4551,0.5 mg/L
same,MIC Streptococcus agalactiae (GC 4564),Streptococcus sp.; Streptococcus agalactiae (GC 4564),<0.12 mg/L
same,MIC Streptococcus pneumoniae (ATCC 6301),Streptococcus sp.; Streptococcus pneumoniae (ATCC 6301),<0.12 mg/L
same,MIC Streptococcus pneumoniae (GC 1894),Streptococcus sp.; Streptococcus pneumoniae (GC 1894),<0.12 mg/L
same,MIC Streptococcus pneumoniae (GC 4565),Streptococcus sp.; Streptococcus pneumoniae (GC 4565),<0.12 mg/L
same,MIC Streptococcus pyogenes (GC 4563),Streptococcus sp.; Streptococcus pyogenes (GC 4563),<0.12 mg/L
same,MIC Streptococcus agalactiae (GC 4564),Streptococcus sp.; [1],<0.12 mg/L
same,MIC Streptococcus pneumoniae (ATCC 6301),Streptococcus sp.; [1],<0.12 mg/L
same,MIC Streptococcus pneumoniae (GC 1894),Streptococcus sp.; [1],<0.12 mg/L
same,MIC Streptococcus pneumoniae (GC 4565),Streptococcus sp.; [1],<0.12 mg/L
same,MIC Streptococcus pyogenes (GC 4563),Streptococcus sp.; [1],<0.12 mg/L

# Reference: US8247211B2, “Glycopeptide antibiotics” (American Cyanamid Company, priority 2001, dated 2012)
